This is an account of results in ChEMBL document CHEMBL5137004, “An overview on the synthetic urease inhibitors with structure-activity relationship and molecular docking” (Eur J Med Chem, 2022).

Chain of Urease subunit alpha/Urease subunit beta (P69996 whole entry): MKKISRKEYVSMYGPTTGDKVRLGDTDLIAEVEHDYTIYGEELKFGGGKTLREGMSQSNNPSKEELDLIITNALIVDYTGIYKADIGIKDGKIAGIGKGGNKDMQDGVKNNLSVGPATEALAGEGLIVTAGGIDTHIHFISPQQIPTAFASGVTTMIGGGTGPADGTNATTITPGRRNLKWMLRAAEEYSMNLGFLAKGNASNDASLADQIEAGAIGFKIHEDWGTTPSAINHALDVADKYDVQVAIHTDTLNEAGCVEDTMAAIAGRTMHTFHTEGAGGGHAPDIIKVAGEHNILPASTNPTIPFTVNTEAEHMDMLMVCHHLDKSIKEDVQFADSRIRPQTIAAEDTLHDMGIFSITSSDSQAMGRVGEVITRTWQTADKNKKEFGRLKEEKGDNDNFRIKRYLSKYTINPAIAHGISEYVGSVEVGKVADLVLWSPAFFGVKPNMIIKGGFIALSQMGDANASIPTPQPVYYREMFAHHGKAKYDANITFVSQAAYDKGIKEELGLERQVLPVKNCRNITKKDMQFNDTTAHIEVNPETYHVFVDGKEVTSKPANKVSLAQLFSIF
Chain of Urease subunit alpha/Urease subunit beta (P14916 whole entry, further chain): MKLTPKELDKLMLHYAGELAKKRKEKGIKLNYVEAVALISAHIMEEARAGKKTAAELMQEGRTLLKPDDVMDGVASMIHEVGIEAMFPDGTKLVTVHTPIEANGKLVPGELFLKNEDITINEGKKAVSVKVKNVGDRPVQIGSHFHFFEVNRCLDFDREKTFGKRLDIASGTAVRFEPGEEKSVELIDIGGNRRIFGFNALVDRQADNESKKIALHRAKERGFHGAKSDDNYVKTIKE

The target in one assay is T1, Urease (Canavalia ensiformis, UniProt P07374). In words: Inhibition of jack bean urease assessed as reduction on ammonia production using urea as substrate preincubated for 15 mins followed by substrate addition and measured after 15 mins by indophenol method.
T1 sequence (P07374 whole entry): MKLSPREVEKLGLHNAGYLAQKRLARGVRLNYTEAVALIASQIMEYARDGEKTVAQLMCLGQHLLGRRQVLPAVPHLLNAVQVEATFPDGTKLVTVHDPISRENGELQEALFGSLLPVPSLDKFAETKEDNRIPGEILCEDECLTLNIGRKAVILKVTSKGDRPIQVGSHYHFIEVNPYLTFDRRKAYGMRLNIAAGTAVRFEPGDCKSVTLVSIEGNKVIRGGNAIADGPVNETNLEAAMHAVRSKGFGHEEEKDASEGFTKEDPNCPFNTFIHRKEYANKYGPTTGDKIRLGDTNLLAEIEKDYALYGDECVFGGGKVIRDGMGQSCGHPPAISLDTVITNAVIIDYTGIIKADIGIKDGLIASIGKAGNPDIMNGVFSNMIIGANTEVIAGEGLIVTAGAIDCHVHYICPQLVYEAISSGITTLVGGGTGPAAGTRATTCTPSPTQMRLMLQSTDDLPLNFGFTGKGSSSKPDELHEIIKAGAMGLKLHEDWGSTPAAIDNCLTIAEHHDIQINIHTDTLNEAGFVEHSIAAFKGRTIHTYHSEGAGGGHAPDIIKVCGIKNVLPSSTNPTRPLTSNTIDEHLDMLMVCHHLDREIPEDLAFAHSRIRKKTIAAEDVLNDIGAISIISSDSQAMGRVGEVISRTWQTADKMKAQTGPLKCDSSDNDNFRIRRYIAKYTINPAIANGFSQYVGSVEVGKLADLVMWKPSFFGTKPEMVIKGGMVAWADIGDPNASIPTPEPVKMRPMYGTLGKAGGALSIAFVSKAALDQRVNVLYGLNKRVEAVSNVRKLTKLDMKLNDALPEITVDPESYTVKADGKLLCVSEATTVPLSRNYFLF
Conditions: not given
Turning to `CC(C)NCC(O)COc1ccc(CC(N)=O)cc1` (configuration not stated) [ATENOLOL], the IC50 worked out at 64.4 µM.

Test system in a further assay: not listed separately
Description: Inhibition of urease (unknown origin).
Conditions: not given
The molecule `CCc1nc2ccccc2c(=O)n1CC(=O)NNC(=O)c1cc2cc(Br)ccc2oc1=O` came in with an IC50 of 1.26 µg/mL.

For the molecule `O=c1c2ccccc2nc(Cc2ccccc2)n1Cc1nnc(Nc2ccc([N+](=O)[O-])cc2)s1`, the half-inhibitory concentration (IC50) is 3.3 µg/mL.

The assay is the same for the next values; noted with them: read-out: IC50.
For `COc1ccc(/C=C/C(=O)c2ccc(O)cc2)cc1`, the IC50 is 11.5 µM.

On to `O=C1Nc2ccc(Cl)cc2/C1=C\c1ccc(C(=O)N/N=C/c2c(O)cc(O)cc2O)cc1`, for which the IC50 amounted to 13 µM.

As to `O=C1NC(=S)NC(=O)C1=CNc1cc([N+](=O)[O-])ccc1C(=O)O`, the concentration for half-maximal inhibition (IC50) is 8.53 µM.

For `CC(C)=CCN1C(=O)/C(=N/Nc2ccccc2)c2ccccc21`, the IC50 is 0.71 µM.

For `Nc1cccc(C(c2c(O)c3ccccc3oc2=O)c2c(O)c3ccccc3oc2=O)c1`, the IC50 worked out at 74.3 µM.

Take `O=[N+]([O-])c1ccc(S(=O)(=O)N/N=C(\c2ccccc2)c2ccc(O)cc2)cc1`: the IC50 was 3.9 µM.

Consider `O=C(CC(O)c1cc(Cl)ccc1OCc1ccccc1)NO` (configuration not stated), for which the IC50 worked out at 0.15 µM.

As for `COc1ccc(-c2nc(C(=O)NC3CCCCC3)cs2)cc1`, the IC50 was 1.82 µM.

`O=[N+]([O-])c1ccc(S(=O)(=O)Nc2nnc(-c3ccc(C(c4c[nH]c5ccc(Br)cc45)c4c[nH]c5ccc(Br)cc45)cc3)s2)c([N+](=O)[O-])c1`: the IC50 came to 0.5 µM.

`COc1ccc(C(=O)NNC(=O)c2cc(Cl)cc(Cl)c2)cc1`: the IC50 turned out to be 0.87 µM.

With `O=C(N/N=C/c1c(O)ccc2c(=O)cc(-c3ccc(F)cc3)oc12)c1ccccc1`, the IC50 came out at 1.21 µM.

For `Cc1ccc(/C=N/Nc2nc(-c3ccc(Br)cc3)cs2)cc1`, the IC50 is 0.11 µM.

Take `CC(=O)NO` [ACETOHYDROXAMIC ACID]: the IC50 was determined as 29.2 µM.

Another assay has as its target T1, Urease. Description: Inhibition of jack bean urease.
Conditions: not given
`CCc1nc2cc([N+](=O)[O-])ccc2n1S(=O)(=O)c1ccc(C)cc1` had a half-inhibitory concentration (IC50) of 31.1 µM.

Molecule `CCNc1cc2c(cc1C)C1(c3cc(C)c(NCC)cc3O2)c2ccccc2C(=O)N1NC(=O)c1ccccc1` registered an IC50 of 0.111 µM.

`NNC(=O)c1ccc(C(=O)Cn2nc(-c3ccccc3O)nc2-c2ccccc2O)cc1`: the IC50 is 3.25 µM.

Turning to `O=C(Cc1nnn[nH]1)Cn1nc(-c2ccccc2O)nc1-c1ccccc1O`, the midpoint of inhibition, the IC50, lay at 1.27 µM.

Take `Nn1c(-c2ccc(Br)cc2)n[nH]c1=S`: the IC50 amounted to 4.3 µM.

Regarding `CCOc1ccc(NC(=S)N(CC(O)COc2ccc(CC(N)=O)cc2)C(C)C)cc1` (configuration not stated), the IC50 amounted to 11.7 µM.

For `COc1cc(C(=O)c2c(O)c3ccccc3oc2=O)cc(OC)c1OC`, the IC50 is 11.3 µM.

`Cc1ncc([N+](=O)[O-])n1Cc1cn(Cc2ccc(F)cc2)nn1`: the IC50 is 1.97 µM.

The molecule `CCNC1NN=C(Cn2c(Cc3ccc(F)cc3)nc3ccccc3c2=O)S1` (configuration not stated) gave an IC50 of 4.73 µM.

`C/C(=N\NC(=S)Nc1cccc([N+](=O)[O-])c1)c1cc2ccccc2o1` displayed an IC50 of 0.077 µM.

`O=C(/C=C/c1ccc(O)c(O)c1)O[C@@H]1C[C@](O)(C(=O)Nc2ccc(-c3ccc(Cl)cc3[N+](=O)[O-])cc2)CC(O)C1O` (some centres not stated) displayed an IC50 of 11 µM.

In turn, `O=C1O[C@H]([C@@H](O)CO)C(O)=C1O` [ASCORBIC ACID] registered an IC50 of 8.59 µM.

In a further assay the target is T1, Urease. Description: Inhibition of jack bean urease assessed as reduction on ammonia production using urea as substrate incubated for 30 mins by indophenol method.
Conditions: not given
Consider `CCCCCCCCCCCCCC(=O)NC(=S)Nc1cccc(Cl)c1`, for which the IC50 stood at 0.0391 µM.

For `NC(N)=S` [THIOUREA], the 50% inhibitory concentration (IC50) was determined as 18.2 µM.

For the next assay, the target named is T1, Urease. Description: Non-competitive inhibition of jack bean urease assessed as dissociation constant measured upto 10 mins by Lineweaver-Burk plot analysis.
Conditions: not given
`CCCCCCCCCCCCCC(=O)NC(=S)Nc1cccc(Cl)c1`: the Ki came out at 0.021 µM.

The next assay addresses T1, Urease. In words: Inhibition of jack bean urease assessed as reduction on ammonia production using urea as substrate incubated for 30 mins by indophenol reagent based UV-vis spectrophotometer.
Conditions: not given
As to `Cc1nc2cc(Cl)c(Cl)cc2n1Cc1nnc(S)n1-c1ccc([N+](=O)[O-])cc1`, the IC50 was determined as 0.0294 µM.

As for `S=P(Nc1ccc(CCc2ccc(NP(=S)(c3ccccc3)c3ccccc3)cc2)cc1)(c1ccccc1)c1ccccc1`, the IC50 was 0.00191 µM.

`Cc1nc2cc(Cl)c(Cl)cc2n1CC(=O)NNC(=S)Nc1ccc([N+](=O)[O-])cc1`: the IC50 stood at 0.0354 µM.

In another assay the target is T1, Urease. Description: Inhibition of jack bean urease assessed as reduction on ammonia production using urea as substrate incubated for 15 mins by indophenol reagent based microplate reader assay.
Conditions: not given
With `NS(=O)(=O)c1ccc(NC=C2C(=O)NC(=S)NC2=O)cc1`, the IC50 is 3.76 µM.

On to `COc1ccc(-c2c/c(=N\C(=O)Oc3ccccc3)c3c(O)cc(O[C@@H]4O[C@H](CO)[C@@H](O)[C@H](O)[C@H]4O[C@@H]4O[C@@H](C)[C@H](O)[C@@H](O)[C@H]4O)cc3o2)cc1O`, for which the IC50 was found to be 15.6 µM.

Turning to `C[C@H](O)c1nc2ccccc2[nH]1`, the IC50 is 22 µM.

On to `COc1ccc(-c2c/c(=N\C(=S)Nc3cccc([N+](=O)[O-])c3)c3c(O)cc(O[C@@H]4O[C@H](CO)[C@@H](O)[C@H](O)[C@H]4O[C@@H]4O[C@@H](C)[C@H](O)[C@@H](O)[C@H]4O)cc3o2)cc1O`, for which the IC50 worked out at 12.6 µM.

Consider `Oc1ccc(C2Oc3cc(O)cc(O)c3/C(=N/C(=S)Nc3ccccc3)C2O)c(O)c1` (configuration not stated), for which the IC50 is 7.37 µM.

On to `COc1ccc2cc([C@@H](C)c3nc4cc(Cl)ccc4[nH]3)ccc2c1`, for which the IC50 came out at 36 µM.

Test system in another assay: not listed separately
In words: Antioxidant activity assessed as DPPH radical scavenging activity incubated for 30 mins. The class given is functional.
Conditions: not given
For `COc1ccc(-c2c/c(=N\C(=O)Oc3ccccc3)c3c(O)cc(O[C@@H]4O[C@H](CO)[C@@H](O)[C@H](O)[C@H]4O[C@@H]4O[C@@H](C)[C@H](O)[C@@H](O)[C@H]4O)cc3o2)cc1O`, the IC50 was 5.64 µM.

With `COc1ccc(-c2c/c(=N\C(=S)Nc3cccc([N+](=O)[O-])c3)c3c(O)cc(O[C@@H]4O[C@H](CO)[C@@H](O)[C@H](O)[C@H]4O[C@@H]4O[C@@H](C)[C@H](O)[C@@H](O)[C@H]4O)cc3o2)cc1O`, the half-inhibitory concentration (IC50) worked out at 5.2 µM.

For `O=C(/C=C/c1ccc(O)c(O)c1)O[C@@H]1C[C@](O)(C(=O)Nc2ccc(-c3ccc(Cl)cc3[N+](=O)[O-])cc2)CC(O)C1O` (some centres not stated), the IC50 was 5.1 µM.

A further assay has as its target Urease subunit alpha/Urease subunit beta (Helicobacter pylori (strain ATCC 700392 / 26695) (Campylobacterpylori), UniProt P69996). Description: Inhibition of Helicobacter pylori urease.
Conditions: not given
The class given is protein-complex assay.
As to `O=C(COc1ccc(CC2C(=O)NC(=O)NC2=O)cc1)Nc1cccc(Cl)c1Cl`, 0.69 µM corresponded to half-maximal inhibition (IC50).

`NC(=O)NO` [HYDROXYUREA] showed an IC50 of 100 µM.

Molecule `NC(N)=S` [THIOUREA] showed a 50% inhibitory concentration (IC50) of 23 µM.

Test system in another assay: not listed separately
Description: Inhibition of urease (unknown origin) assessed as reduction on ammonia production using urea as substrate incubated for 15 mins by indophenol reagent based microplate reader assay.
Conditions: not given
For the molecule `O=C(NNC(=S)Nc1ccc([N+](=O)[O-])cc1)c1ccc(-c2nc3ccccc3s2)cc1`, the IC50 was 1.4 µM.

As usually defined, the IC50 is the point on the concentration scale where inhibition reaches its midpoint. For orientation: Ki means the dissociation constant of the complex between target and ligand, obtained from inhibition or displacement.
